One data set concerns explanted guts. Kind of data set: Cell clustering and collagen 1 remodeling in explanted embryonic guts. Conditions: explanted guts of embryonic mice treated with inhibitor; results not shown. On the procedure:
(§1) Blebbistatin (Abcam ab120491) and staurosporine (Sigma-Aldrich S5921) were added to cell media at the indicated concentrations by serial dilution from 10 mM DMSO stocks.
(§2) FIG. 21. (A). Gut villi in embryonic mice form in concert with condensation of PDGFR-positive mesenchymal fibroblasts at sites of villus curvature. These clusters are associated with local alignment and compaction of collagen 1 fibrils against the E-cadherin-positive epithelium. […] B) Feather buds in embryonic chickens form from a flat epithelium, and can be visualized with non-specific ethidium bromide staining Chick skin explants at Hamburger-Hamilton (HH) stage 32 form feather buds in culture, but feather bud spacing and height are disrupted in the presence of blebbistatin.

The next data set has as its system Chick skin explants. Kind of data set: Feather bud formation in chick skin explants in culture. The following applies: chick skin explants at Hamburger-Hamilton (HH) stage 32 in culture. The arrangement: species or system chickens. On the procedure:
as §1, §2

Data set [1] deals with mesenchymal-like carcinoma cells. The data set can be described thus: Unfolding of pre-folded isotropic reconstituted tissues after ablating actuator cells. The class given is cell-based. The method, then: as §1
Curvatures reported for cap reconstituted tissues were generated by radially reslicing and thresholding in ImageJ after manually picking the center of reconstituted tissues to serve as origin points. Radial slices were read into MATLAB and least-squares fitted to circles. Anisotropic curvatures were similarly generated for the indicated cutting planes and folds.

Data set [2] shares this test system. The data set can be described thus: Efficacy of staurosporine on cells cultured on standard tissue culture plastic (cell viability). It is filed as cell-based. The following applies: 20 μM, n=6. On the procedure: as §1

This is an account of results in patent US10920190B2, “Folding biological tissue via programmed cellular contractility” (The Regents of the University of California, priority 2016, dated 2021).

Take `Cc1ccc2c(c1)C(=O)C1(O)CCN(c3ccccc3)C1=N2` (centres unmarked) [blebbistatin]: in the data set with explanted guts, the “cell clustering and collagen 1 remodeling” value is “does not occur”. Moreover, in the data set on Chick skin explants, the “feather bud spacing and height” value is listed as “disrupted”.

With `CN[C@@H]1C[C@H]2O[C@@](C)([C@@H]1OC)n1c3ccccc3c3c4c(c5c6ccccc6n2c5c31)C(=O)NC4` [staurosporine], the “pre-folded isotropic tissue curvatures (maximum curvature relative to average maximum curvature prior to addition)” value in data set [1] (20 μM, n=4 reconstituted tissues per condition) is given as “modest reductions”. Besides, in data set [1] (upon inducing apoptosis of condensing cells using staurosporine (FIG. 13)), the “unfolding of pre-folded tissues” value was “less than 40%”. Also, the “cell death (cell viability)” value in data set [2] is listed as “nearly complete cell death”.
